From patent publication US10987369B2, “Pdia4 protein as a target for diagnosis, monitoring and treatment of diabetes” (ACADEMIA SINICA, priority 2014, dated 2021)

Experiments:
GST-Pdia4 = biological target: T1, GST-Pdia4 (Homo sapiens, UniProt P13667); experiment: Bovine pancreatic trypsin inhibitor (BPTI)-based assay of disulfide isomerase activity; format: biochemical; conditions: reduced BPTI as substrate, CP at different doses, FIG. 5B
T1 construct: made in house; host or cells: E. coli
T1 sequence (P13667 21-645): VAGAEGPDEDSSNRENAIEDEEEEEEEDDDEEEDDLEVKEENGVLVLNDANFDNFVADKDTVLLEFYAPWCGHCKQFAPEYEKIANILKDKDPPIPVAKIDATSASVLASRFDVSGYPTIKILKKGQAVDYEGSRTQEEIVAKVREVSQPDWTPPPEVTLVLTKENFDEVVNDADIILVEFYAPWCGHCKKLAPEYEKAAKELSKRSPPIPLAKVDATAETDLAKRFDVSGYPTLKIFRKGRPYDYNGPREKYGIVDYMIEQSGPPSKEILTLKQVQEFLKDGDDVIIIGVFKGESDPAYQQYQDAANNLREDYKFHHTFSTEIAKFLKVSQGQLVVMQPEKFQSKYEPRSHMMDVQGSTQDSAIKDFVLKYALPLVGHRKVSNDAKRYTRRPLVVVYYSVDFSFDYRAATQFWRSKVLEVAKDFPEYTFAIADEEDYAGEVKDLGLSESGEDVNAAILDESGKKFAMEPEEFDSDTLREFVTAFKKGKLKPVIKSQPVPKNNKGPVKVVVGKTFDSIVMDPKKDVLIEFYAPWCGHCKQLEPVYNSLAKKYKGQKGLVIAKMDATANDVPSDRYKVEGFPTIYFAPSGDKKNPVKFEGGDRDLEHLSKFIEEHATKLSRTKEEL
Procedure: Their postprandial blood glucose was determined using a glucometer. […] Their postprandial blood glucose was determined using a glucometer. Glutathione agarose bead-bound GST-Pdia4 (0.15 μg) were purified from E. coli bacteria.

lepr^db/db mice = experiment: Postprandial blood glucose in treated lepr db/db mice; format: in vivo, mouse; conditions: cytopiloyne 2.5 mg/kg daily, FIG. 5C
Procedure: Their postprandial blood glucose was determined using a glucometer. […] Their postprandial blood glucose was determined using a glucometer.
To deplete pancreatic β cells in mice. […] Postprandial blood glucose was measured. […] Postprandial blood glucose was measured.

pdia4^−/−lepr^db/db mice = experiment: Postprandial blood glucose in treated pdia4-/- lepr db/db mice; conditions: metformin 60 mg/kg BW, rosiglitazone 20 mg/kg BW or both, daily, FIG. 5A
Procedure: (A) lepr^db/db and pdia4^−/−lepr^db/db mice received a daily dose of PBS vehicle (Veh), metformin (MET, 60 mg/kg BW) and metformin (MET, 60 mg/kg BW)/rosiglitazone (ROS, 20 mg/kg BW). Their postprandial blood glucose was determined using a glucometer. […] (C) lepr^db/db mice received a daily dose of PBS vehicle (Veh), cytopiloyne (CP, 2.5 mg/kg), cytopiloyne (CP, 2.5 mg/kg)/metformin (MET, 60 mg/kg BW) and cytopiloyne (CP, 2.5 mg/kg)/metformin (MET, 60 mg/kg BW)/rosiglitazone (Ros, 20 mg/kg BW). Their postprandial blood glucose was determined using a glucometer.
To treat mice, PBS or a combination of cytopiloyne (2.5 mg/kg/day), metformin (60 mg/kg/day), and metformin (60 mg/kg/day) plus rosiglitazone (20 mg/kg/day) were fed for the indicated time. Postprandial blood glucose was measured. To treat pdia4^−/−lepr^db/db mice, PBS, metformin (60 mg/kg/day), and metformin (60 mg/kg/day) plus rosiglitazone (20 mg/kg/day) were fed for the indicated time. Postprandial blood glucose was measured.
After the overnight fasting, the mice had free access to food for 2 hr. fasting or postprandial blood glucose levels of the mice were measured using an Elite glucometer (Bayer).

What does the source list for CC#CC#CC#CC#CCCC(CO)O[C@@H]1O[C@H](CO)[C@@H](O)[C@H](O)[C@H]1O (stereo partly shown) [cytopiloyne]?
enzymatic (disulfide isomerase) activity of Pdia4 (GST-Pdia4): inhibited Pdia4 activity; enzymatic (disulfide isomerase) activity of Pdia4 (GST-Pdia4; listed as Cytopiloyne): suppress the enzymatic activity of Pdia4; postprandial blood glucose (lepr^db/db mice): lower postprandial blood glucose

How did the “hyperglycemia (postprandial blood glucose)” value (pdia4^−/−lepr^db/db mice) turn out when CN(C)C(=N)N=C(N)N [metformin] was run?
The value was “normalize hyperglycemia”.
